Source: ChEMBL document CHEMBL1135618, “Design and pharmacology of N-[(3R)-1,2,3,4-tetrahydroisoquinolinium- 3-ylcarbonyl]-(1R)-1-(4-chlorobenzyl)- 2-[4-cyclohexyl-4-(1H-1,2,4-triazol- 1-ylmethyl)piperidin-1-yl]-2-oxoethylamine (1), a potent, selective, melanocortin subtype-4 receptor agonist” (J Med Chem, 2002)
pEC50, pIC50: −log10 of the molar value.

Assays:
Melanocortin receptor 4 [1] = molecular target: T1, Melanocortin receptor 4 (Homo sapiens, UniProt P32245); assay: Maximum percent cAMP accumulation at 10 uM relative to alpha-MSH at Melanocortin-4 receptor; assay type: functional
T1 sequence (P32245 whole entry): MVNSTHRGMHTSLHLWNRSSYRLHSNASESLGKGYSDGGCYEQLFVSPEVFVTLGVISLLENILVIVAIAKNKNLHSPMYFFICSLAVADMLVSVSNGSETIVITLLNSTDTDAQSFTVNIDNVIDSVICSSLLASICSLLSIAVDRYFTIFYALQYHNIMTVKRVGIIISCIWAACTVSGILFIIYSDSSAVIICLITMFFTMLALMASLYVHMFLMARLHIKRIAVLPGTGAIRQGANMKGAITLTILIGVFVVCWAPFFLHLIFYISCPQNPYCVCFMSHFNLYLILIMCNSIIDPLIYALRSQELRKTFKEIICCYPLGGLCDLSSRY

[2] = test system: Melanocortin receptor 5 + Melanocortin receptor 4 (Homo sapiens); assay: Evaluated for selectivity for MC5R versus MC4R displacing [125I]NDP-alpha-MSH radioligand expressed in CHO cells
Melanocortin receptor 3 [3] = molecular target: T2, Melanocortin receptor 3 (Homo sapiens, UniProt P41968); assay: Evaluated for Functional Activity at MC3R as effective concentration at 50% maximum CMP accumulation
T2 sequence (P41968 whole entry): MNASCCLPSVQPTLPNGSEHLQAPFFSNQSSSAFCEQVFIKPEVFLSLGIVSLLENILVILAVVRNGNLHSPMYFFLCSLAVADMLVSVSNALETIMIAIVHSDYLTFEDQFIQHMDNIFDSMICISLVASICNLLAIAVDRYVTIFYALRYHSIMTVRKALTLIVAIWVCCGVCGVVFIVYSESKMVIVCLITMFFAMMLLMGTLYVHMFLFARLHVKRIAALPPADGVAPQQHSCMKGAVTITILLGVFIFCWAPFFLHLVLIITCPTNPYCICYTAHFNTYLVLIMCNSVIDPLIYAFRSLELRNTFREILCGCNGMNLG

Melanocortin receptor 3 [4] = molecular target: T2, Melanocortin receptor 3; assay: Maximum percentage of cAMP accumulation at 10 uM relative to alpha-MSH at MC3R; assay type: functional
Melanocortin receptor 4 [5] = molecular target: T1, Melanocortin receptor 4
Description: Evaluated for binding affinity against Melanocortin-4 receptor by displacing [125I]-NDP-alpha-MSH radioligand expressed in CHO cells

Melanocortin receptor 5 [6] = molecular target: T3, Melanocortin receptor 5 (Homo sapiens, UniProt P33032); assay: Evaluated for Functional Activity at MC5R as effective concentration at 50% maximum CMP accumulation
T3 sequence (P33032 whole entry): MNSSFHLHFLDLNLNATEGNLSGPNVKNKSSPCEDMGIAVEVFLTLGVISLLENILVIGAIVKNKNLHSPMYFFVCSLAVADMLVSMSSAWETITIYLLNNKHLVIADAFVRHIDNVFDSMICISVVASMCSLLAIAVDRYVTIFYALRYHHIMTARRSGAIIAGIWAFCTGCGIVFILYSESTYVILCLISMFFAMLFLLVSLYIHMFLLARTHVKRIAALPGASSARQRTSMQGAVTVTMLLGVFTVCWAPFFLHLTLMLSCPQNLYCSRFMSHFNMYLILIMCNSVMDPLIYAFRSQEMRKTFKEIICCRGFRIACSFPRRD

[7] = molecular target: Melanocortin receptor (M3 and M4) (Homo sapiens) (UniProt P32245+P41968); assay: Evaluated for selectivity for MC3R versus MC4R displacing [125I]NDP-alpha-MSH radioligand expressed in CHO cells; assay type: cell-based
Melanocortin receptor 5 [8] = molecular target: T3, Melanocortin receptor 5; assay: Maximum percentage of cAMP accumulation at 10 uM relative to alpha-MSH at MC5R; assay type: functional
Melanocortin receptor 4 [9] = molecular target: T1, Melanocortin receptor 4; assay: Evaluated for Functional Activity at Melanocortin-4 receptor as effective concentration at 50% maximum CMP accumulation
Melanocortin receptor 3 [10] = molecular target: T2, Melanocortin receptor 3; assay: Evaluated for Functional Activity at MC3R as % of cAMP accumulation at 10 uM relative to alpha-MSH
[11] = Evaluated for half life in dog at dose 0.2 mg/kg (intravenous) and 0.5 mg/kg administered orally; assay type: ADME, organism-based, Canis lupus familiaris; conditions: in vivo
Melanocortin receptor 3 [12] = molecular target: T4, Melanocortin receptor 3 (Rattus norvegicus, UniProt P32244); assay: Functional activity as concentration at 50% maximum cAMP accumulation in rat Melanocortin-3 receptor (rMC3R)
T4 sequence (P32244 whole entry): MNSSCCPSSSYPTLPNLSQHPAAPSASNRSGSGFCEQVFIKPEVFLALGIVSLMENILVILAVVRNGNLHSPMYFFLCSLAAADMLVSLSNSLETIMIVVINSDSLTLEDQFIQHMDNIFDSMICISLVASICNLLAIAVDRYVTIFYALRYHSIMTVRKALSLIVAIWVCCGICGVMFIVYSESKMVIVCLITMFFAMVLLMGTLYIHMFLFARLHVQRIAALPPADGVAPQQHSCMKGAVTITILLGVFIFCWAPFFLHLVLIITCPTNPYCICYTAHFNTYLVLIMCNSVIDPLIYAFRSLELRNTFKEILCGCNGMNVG

Melanocortin receptor 5 [13] = molecular target: T3, Melanocortin receptor 5; assay: Evaluated for binding affinity against human melanocortin 5 (hMC5R) receptor by displacing [125I]NDP-alpha-MSH radioligand expressed in CHO cells; assay type: cell-based
[14] = Volume of distribution evaluated at a dose 1 mg/kg (intravenous) and 10 mg/kg administered orally in rat; assay type: functional, organism-based
[15] = Evaluated for % bioavailability in dogat a dose 0.2 mg/kg (intravenous) and 0.5 mg/kg administered orally; assay type: ADME, organism-based, Canis lupus familiaris; conditions: dog, in vivo, po
Melanocortin receptor 3 [16] = molecular target: T4, Melanocortin receptor 3; assay: Evaluated for binding affinity against rat Melanocortin-3 receptor (rMC3R) by displacing [125I]-NDP-alpha-MSH radioligand expressed in CHO cells; assay type: cell-based
Melanocortin receptor 4 [17] = molecular target: T5, Melanocortin receptor 4 (Rattus norvegicus, UniProt P70596); assay: Functional activity as concentration at 50% maximum cAMP accumulation in rat Melanocortin-4 receptor (rMC4R)
T5 sequence (P70596 whole entry): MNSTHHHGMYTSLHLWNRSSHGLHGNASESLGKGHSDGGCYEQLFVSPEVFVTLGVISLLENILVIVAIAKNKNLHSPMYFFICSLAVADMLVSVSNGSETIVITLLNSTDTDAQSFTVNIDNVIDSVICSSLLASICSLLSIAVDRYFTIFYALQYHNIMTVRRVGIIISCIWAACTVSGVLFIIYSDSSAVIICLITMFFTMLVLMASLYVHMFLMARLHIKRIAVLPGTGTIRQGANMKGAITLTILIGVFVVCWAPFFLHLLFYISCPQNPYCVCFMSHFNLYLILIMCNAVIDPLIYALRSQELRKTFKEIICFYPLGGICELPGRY

[18] = molecular target: Melanocyte-stimulating hormone receptor (Homo sapiens) (UniProt Q01726); conditions: 10 uM
Sequence of Melanocyte-stimulating hormone receptor (Homo sapiens) (Q01726 whole entry, looked up): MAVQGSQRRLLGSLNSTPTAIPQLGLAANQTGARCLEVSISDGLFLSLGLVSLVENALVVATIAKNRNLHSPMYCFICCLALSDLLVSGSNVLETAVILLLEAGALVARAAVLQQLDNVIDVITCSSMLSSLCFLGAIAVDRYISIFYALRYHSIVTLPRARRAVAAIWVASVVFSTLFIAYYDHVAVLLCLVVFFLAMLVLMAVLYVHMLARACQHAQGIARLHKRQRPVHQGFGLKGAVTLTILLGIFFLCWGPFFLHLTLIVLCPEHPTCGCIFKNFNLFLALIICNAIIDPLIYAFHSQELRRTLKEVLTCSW
Description: Percentage of cAMP accumulation at 10 uM relative to alpha-MSH at hMC1R

[19] = Half life in rat evaluated at a dose 1 mg/kg (intravenous) and 10 mg/kg administered orally and was evaluated for; assay type: ADME, organism-based; conditions: in vivo
[20] = molecular target: Melanocortin receptor 4 (Rattus norvegicus) (UniProt P70596); conditions: 10 uM
Sequence of Melanocortin receptor 4 (Rattus norvegicus) (P70596 whole entry): as the sequence (P70596 whole entry) above
Description: Percentage of cAMP accumulation at 10 uM relative to alpha-MSH at rat Melanocortin-4 receptor

[21] = Evaluated for maximum time Tmax in rat at a dose 1 mg/kg (intravenous) and 10 mg/kg administered orally; assay type: functional, organism-based
[22] = Evaluated for plasma clearance in rat at a dose 1 mg/kg (intravenous) and 10 mg/kg administered orally; assay type: ADME, organism-based
Melanocortin receptor 5 [23] = molecular target: T3, Melanocortin receptor 5; assay: Functional activity as concentration at 50% maximum cAMP accumulation in human […] (MC5R) receptor
[24] = Percent bioavailability in rat evaluated at a dose 1 mg/kg (intravenous) and 10 mg/kg administered orally and was evaluated for; assay type: ADME, organism-based; conditions: in vivo, po
[25] = molecular target: Melanocortin receptor 5 (Rattus norvegicus) (UniProt P35345); assay: Percentage of cAMP accumulation at 10 uM relative to alpha-MSH at rat Melanocortin-5 receptor; assay type: functional
Sequence of Melanocortin receptor 5 (Rattus norvegicus) (P35345 whole entry): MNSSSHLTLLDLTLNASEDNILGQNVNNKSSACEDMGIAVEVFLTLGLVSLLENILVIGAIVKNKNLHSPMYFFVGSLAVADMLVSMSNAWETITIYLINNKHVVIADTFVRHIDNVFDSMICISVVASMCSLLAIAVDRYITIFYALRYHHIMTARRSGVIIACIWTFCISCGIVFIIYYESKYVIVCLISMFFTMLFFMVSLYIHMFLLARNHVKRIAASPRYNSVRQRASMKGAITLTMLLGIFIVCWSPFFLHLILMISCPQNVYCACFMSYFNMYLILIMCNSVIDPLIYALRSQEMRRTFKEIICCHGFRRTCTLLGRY

[26] = molecular target: Melanocortin receptor 3 (Rattus norvegicus) (UniProt P32244); assay: Percentage of cAMP accumulation at 10 uM relative to alpha-MSH at rat Melanocortin-3 receptor; assay type: functional
Sequence of Melanocortin receptor 3 (Rattus norvegicus) (P32244 whole entry): as the sequence (P32244 whole entry) above

Melanocortin receptor 5 [27] = molecular target: T6, Melanocortin receptor 5 (Rattus norvegicus, UniProt P35345); assay: Functional activity as concentration at 50% maximum cAMP accumulation in rat Melanocortin-5 receptor (rMC5R)
T6 sequence (P35345 whole entry): as the sequence (P35345 whole entry) above

Melanocortin receptor 3 [28] = molecular target: T2, Melanocortin receptor 3; conditions: 10 uM
Description: Percentage of cAMP accumulation at 10 uM relative to alpha-MSH at human Melanocortin-3 receptor

Melanocortin receptor 4 [29] = molecular target: T5, Melanocortin receptor 4; assay: Evaluated for binding affinity against rat Melanocortin-4 receptor (rMC4R) by displacing [125I]NDP-alpha-MSH radioligand expressed in CHO cells; assay type: cell-based
[30] = Volume of distribution evaluated at a dose 0.2 mg/kg (intravenous) and 0.5 mg/kg administered orally in dog
[31] = Evaluated for maximum time Tmax in dog at dose 0.2 mg/kg (intravenous) and 0.5 mg/kg administered orally; assay type: functional, organism-based
Melanocortin receptor 5 [32] = molecular target: T3, Melanocortin receptor 5; conditions: 10 uM
Description: Percentage of cAMP accumulation at 10 uM relative to alpha-MSH at human Melanocortin 5 receptor

[33] = Evaluated for Plasma clearance in dog at dose 0.2 mg/kg (intravenous) and 0.5 mg/kg administered orally; assay type: ADME, organism-based, Canis lupus familiaris
Melanocortin receptor 5 [34] = molecular target: T6, Melanocortin receptor 5; assay: Evaluated for binding affinity against rat Melanocortin-5 receptor (rMC5R) by displacing [125I]NDP-alpha-MSH radioligand expressed in CHO cells; assay type: cell-based

With `Cn1nnnc1CC1(C2CCCCC2)CCN(C(=O)[C@@H](Cc2ccc(Cl)cc2)NC(=O)[C@H]2Cc3ccccc3CN2)CC1` the Activity (Melanocortin receptor 4 [1]) was 103%, the Selectivity [2] was 100 and the pEC50 (Melanocortin receptor 3 [3]) was 7.23. It also gave an Activity (Melanocortin receptor 3 [4]) of 50%, a pIC50 (Melanocortin receptor 4 [5]) of 9.52 and a pEC50 (Melanocortin receptor 5 [6]) of 6.90. The Selectivity [7] was 277, the Activity (Melanocortin receptor 5 [8]) was 51% and the pEC50 (Melanocortin receptor 4 [9]) was 9.22.
Work on `O=C(N[C@@H](Cc1ccc(Cl)cc1)C(=O)N1CCC(Cn2cncn2)(C2CCCCC2)CC1)[C@H]1Cc2ccccc2CN1` yielded an Activity (Melanocortin receptor 4 [1]) of 9%, an Activity (Melanocortin receptor 3 [4]) of 1% and an Activity (Melanocortin receptor 5 [8]) of 2%.
For `O=C(N[C@H](Cc1ccc(Cl)cc1)C(=O)N1CCC(Cc2nnn[nH]2)(C2CCCCC2)CC1)[C@H]1Cc2ccccc2CN1`, the Activity (Melanocortin receptor 4 [1]) was 79%, the Selectivity [2] was 19 and the Activity (Melanocortin receptor 3 [4]) was 10%. It also gave a pIC50 (Melanocortin receptor 4 [5]) of 6.62, a Selectivity [7] of 53 and an Activity (Melanocortin receptor 5 [8]) of 15%. For the same molecule, the pEC50 (Melanocortin receptor 4 [9]) was 6.11.
With `O=C(N[C@@H](Cc1ccc(Cl)cc1)C(=O)N1CCC(Cn2cncn2)(C2CCCCC2)CC1)[C@@H]1Cc2ccccc2CN1` the Activity (Melanocortin receptor 4 [1]) was 34%, the Activity (Melanocortin receptor 3 [4]) was 4% and the Activity (Melanocortin receptor 5 [8]) was 5%.
In the case of `CS(=O)(=O)N1CC2(CCN(C(=O)[C@@H](Cc3ccccc3)NC(=O)[C@@H](N)Cc3c[nH]cn3)CC2)c2ccccc21`, the pEC50 (Melanocortin receptor 4 [9]) was 6.30.
In the case of `Cn1nnc(CC2(C3CCCCC3)CCN(C(=O)[C@@H](Cc3ccc(Cl)cc3)NC(=O)[C@H]3Cc4ccccc4CN3)CC2)n1`, the Activity (Melanocortin receptor 4 [1]) was 87%, the pIC50 (Melanocortin receptor 4 [5]) was 8.92 and the pEC50 (Melanocortin receptor 5 [6]) was 6.00. The Activity (Melanocortin receptor 3 [10]) was 24% and the pEC50 (Melanocortin receptor 4 [9]) was 8.02.
`CS(=O)(=O)N1CC2(CCN(C(=O)[C@@H](Cc3ccc4ccccc4c3)NC(=O)[C@@H](N)Cc3cnc[nH]3)CC2)c2ccccc21` gave a pIC50 (Melanocortin receptor 4 [5]) of 6.97.
In the case of `O=C(N[C@H](Cc1ccc(Cl)cc1)C(=O)N1CCC(Cn2cncn2)(C2CCCCC2)CC1)[C@@H]1Cc2ccccc2CN1`, the Activity (Melanocortin receptor 4 [1]) was 67%, the Activity (Melanocortin receptor 3 [4]) was 7% and the pEC50 (Melanocortin receptor 5 [6]) was 6.57. The Activity (Melanocortin receptor 5 [8]) was 19%.
Molecule `O=C(N[C@H](Cc1ccc(Cl)cc1)C(=O)N1CCC(Cn2cncn2)(C2CCCCC2)CC1)[C@H]1Cc2ccccc2CN1` has a half-life [11] of 1.2 h, a pEC50 (Melanocortin receptor 3 [12]) of 5.88 and a pIC50 (Melanocortin receptor 5 [13]) of 6.49. It also gave a Vdss [14] of 3.6 L/kg, a bioavailability [15] of 16% and an Activity (Melanocortin receptor 3 [4]) of 32%. It also gave a pIC50 (Melanocortin receptor 3 [16]) of 5.73, a pEC50 (Melanocortin receptor 4 [17]) of 8.54 and an Activation [18] of 95%. For the same molecule, the half-life [19] was 0.6 h, the Activation [20] was 99% and the pEC50 (Melanocortin receptor 5 [6]) was 6.13. For the same molecule, the Tmax [21] was 1 h, the clearance [22] was 84 mL/min/kg and the pEC50 (Melanocortin receptor 5 [23]) was 6.13. For the same molecule, the bioavailability [24] was 14%, the Activation [25] was 58% and the Activation [26] was 65%. For the same molecule, the pEC50 (Melanocortin receptor 5 [27]) was < 5.52, the Activation (Melanocortin receptor 3 [28]) was 32% and the pIC50 (Melanocortin receptor 4 [29]) was 9.22. It also gave a Vdss [30] of 2.79 L/kg, a Tmax [31] of 1.5 h and an Activation (Melanocortin receptor 5 [32]) of 61%. For the same molecule, the Activity (Melanocortin receptor 5 [8]) was 61%, the clearance [33] was 27.6 mL/min/kg and the pIC50 (Melanocortin receptor 5 [34]) was 5.80.
